Data as given in US10208071B2, “Use of agonists of formyl peptide receptor 2 for treating ocular inflammatory diseases” (Allergan, Inc., priority 2013, dated 2019).
pEC50: −log10 of the molar value.

Target: FPR2 (Homo sapiens (Human), UniProt P25090)
Assay: FLIPR Ca+2 response, HEK-Gα16 cells stably expressing the human FPR2 receptor (Table 4)
Assay type: cell-based
Details: for FPR2 (efficacy): efficacy in parentheses
Description: FLIPR: HEK-Gα16 cells stably expressing the human FPR2 receptor was utilized. Cells were plated into 384-well poly-D-lysine coated plates at a density of 18,000 cells per well one day prior to use. The growth media was DMEM medium supplemented with 10% fetal bovine serum (FBS), 1% antibiotic-antimycotic, 50 μg/ml hygromycin, and 400 μg/ml geneticin. On the day of the experiment, the cells were washed twice with Hank's Balanced Salt Solution supplemented with 20 mM HEPES (HBSS/hepes buffer). The cells were then dye loaded with 2 μM Fluo-4 diluted in the HBSS/Hepes buffer and incubated at 37° C. for 40 minutes. Extracellular dye was removed by washing the cell plates four times prior to placing the plates in the FLIPR (Fluorometric Imaging Plate Reader, Molecular Devices). Ligands were diluted in HBSS/Hepes buffer and prepared in 384-well microplates. Data for Ca^+2 responses were obtained in relative fluorescence units.

FPR2, sequence (P25090 whole entry): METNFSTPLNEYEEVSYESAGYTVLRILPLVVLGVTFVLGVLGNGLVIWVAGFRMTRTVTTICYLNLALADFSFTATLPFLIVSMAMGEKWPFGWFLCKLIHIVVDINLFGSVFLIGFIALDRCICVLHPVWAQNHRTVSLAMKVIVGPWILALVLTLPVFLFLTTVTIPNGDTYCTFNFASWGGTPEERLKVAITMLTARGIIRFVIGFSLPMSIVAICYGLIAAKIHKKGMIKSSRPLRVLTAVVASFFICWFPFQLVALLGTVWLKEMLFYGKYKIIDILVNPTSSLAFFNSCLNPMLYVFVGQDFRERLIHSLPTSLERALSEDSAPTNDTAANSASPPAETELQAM

pEC50 | FPR2 (efficacy) | Compound
8.24 | nM (1.0) | CC(C)C[C@H](NC(=O)Nc1ccc(Br)cc1)C(=O)N[C@H](C(N)=O)C(C)C [Compound 92, (2S)-N-[(2S)-1-amino-3-methyl-1-oxobutan-2-yl]-2-{[(4-bromophenyl)carbamoyl]amino}-4-methylpentanamide]
8.60 | nM (0.93) | CC(C)C[C@H](NC(=O)Nc1ccc(Br)cc1)C(=O)NCC(C)(C)O [Compound 93, (2S)-2-{[(4-bromophenyl)carbamoyl]amino}-N-(2-hydroxy-2-methylpropyl)-4-methylpentanamide]
 | nM (0.96) | CC(C)C[C@H](NC(=O)Nc1ccc(Br)cc1)C(=O)NC(CO)CO [Compound 94, (2S)-2-{[(4-bromophenyl)carbamoyl]amino}-N-(1,3-dihydroxypropan-2-yl)-4-methylpentanamide]
 | nM (0.98) | CC(C)C[C@H](NC(=O)Nc1ccc(Br)cc1)C(=O)NCC(O)CO (stereo partly drawn) [Compound 95, (2S)-2-{[(4-bromophenyl)carbamoyl]amino}-N-(2,3-dihydroxypropyl)-4-methylpentanamide]
 | nM (1.0) | CC(C)C[C@H](NC(=O)Nc1ccc(Br)cc1)C(=O)N[C@H](C)CO [Compound 96, (2S)-2-{[(4-bromophenyl)carbamoyl]amino}-N-[(2R)-1-hydroxypropan-2-yl]-4-methylpentanamide]
 | nM (0.95) | Cc1ccc(CCC2(C)NC(=O)N(NC(=O)Nc3ccc(Br)cc3)C2=O)o1 (stereo not drawn) [Compound 97, 1-(4-bromophenyl)-3-{4-methyl-4-[2-(5-methylfuran-2-yl)ethyl]-2,5-dioxoimidazolidin-1-yl}urea]
 | nM (0.91) | CC1(CCc2ccc(O)c(F)c2)NC(=O)N(NC(=O)Nc2ccc(Br)cc2F)C1=O (stereo not drawn) [Compound 98, 1-(4-bromo-2-fluorophenyl)-3-{4-[2-(3-fluoro-4-hydroxyphenyl)ethyl]-4-methyl-2,5-dioxoimidazolidin-1-yl}urea]
8.10 | nM (1.0) | CC1(CCc2ccc(O)c(F)c2)NC(=O)N(NC(=O)Nc2ccc(Br)cc2)C1=O (stereo not drawn) [Compound 99, 1-(4-bromophenyl)-3-{4-[2-(3-fluoro-4-hydroxyphenyl)ethyl]-4-methyl-2,5-dioxoimidazolidin-1-yl}urea]
 | nM (1.0) | CCC[C@H](NC(=O)[C@H](CC(C)C)NC(=O)Nc1ccc(Br)cc1)C(=O)OC(C)(C)C [Compound 100, tert-butyl (2S)-2-{[(2S)-2-{[(4-bromophenyl)carbamoyl]amino}-4-methylpentanoyl]amino} pentanoate]
 | nM (0.95) | CCC[C@H](NC(=O)[C@H](CC(C)C)NC(=O)Nc1ccc(Br)cc1)C(=O)O [Compound 101, (2S)-2-{[(2S)-2-{[(4-bromophenyl)carbamoyl]amino}-4-methylpentanoyl]amino} pentanoic acid]
8.14 | nM (0.99) | CCC[C@H](NC(=O)[C@H](CC(C)C)NC(=O)Nc1ccc(Br)cc1)C(N)=O [Compound 102, (2S)-N-[(2S)-1-amino-1-oxopentan-2-yl]-2-{[(4-bromophenyl)carbamoyl]amino}-4-methylpentanamide]
 | nM (1.0) | CC(C)C[C@H](NC(=O)Nc1ccc(Br)cc1)C(=O)N[C@H](C(=O)O)c1ccccc1 [Compound 103, (2S)-{[(2S)-2-{[(4-bromophenyl)carbamoyl]amino}-4-methylpentanoyl]amino} (phenyl)ethanoic acid]
 | nM (0.81) | CC(C)C[C@H](NC(=O)Nc1ccc(Br)cc1)C(=O)NCc1nnn[nH]1 [Compound 104, (2S)-2-{[(4-bromophenyl)carbamoyl]amino}-4-methyl-N-(1H-tetrazol-5-ylmethyl)pentanamide]

Further lines, the compound ahead of its results:

Compound | pEC50 | FPR2 (efficacy)
O=C(Nc1ccc(Br)cc1F)N[C@@H](Cc1ccccc1)C(=O)NCCO [Compound 71, (2S)-2-{[(4-bromo-2-fluorophenyl)carbamoyl]amino}-N-(2-hydroxyethyl)-3-phenylpropanamide] | 7.81 | nM (0.98)
CCC[C@H](NC(=O)Nc1ccc(Br)cc1)C(=O)NCC(=O)OC [Compound 72, methyl{[(2S)-2-{[(4-bromophenyl)carbamoyl]amino}pentanoyl]amino}acetate] | 7.79 | nM (0.86)
CCC[C@H](NC(=O)Nc1ccc(Br)cc1)C(=O)NCC(=O)OC(C)C [Compound 73, propan-2-yl {[(2S)-2-{[(4-bromophenyl)carbamoyl]amino}pentanoyl]amino}acetate] | 7.84 | nM (1.0)
CCC[C@H](NC(=O)Nc1ccc(Br)cc1F)C(=O)NCC(=O)O [Compound 74, {[(2S)-2-+{[(4-bromo-2-fluorophenyl)carbamoyl]amino}pentanoyl]amino}acetic acid] | 8.39 | nM (0.91)
CC(C)C[C@H](NC(=O)Nc1ccc(Br)cc1)C(=O)NCCO [Compound 75, (2S)-2-{[(4-bromophenyl)carbamoyl]amino}-N-(2-hydroxyethyl)-4-methylpentanamide] | 7.87 | nM (0.76)
CC1(CCc2ccco2)NC(=O)N(NC(=O)Nc2ccc(Br)cc2)C1=O (stereo not drawn) [Compound 76, 1-(4-bromophenyl)-3-{4-[2-(furan-2-yl)ethyl]-4-methyl-2,5-dioxoimidazolidin-1-yl}urea] | 8.28 | nM (0.99)
CC(C)C[C@H](NC(=O)Nc1ccc(Br)cc1)C(=O)NCC(N)=O [Compound 77, (2S)-N-(2-amino-2-oxoethyl)-2-{[(4-bromophenyl)carbamoyl]amino}-4-methylpentanamide] | 8.96 | nM (1.0)
CC(=O)CNC(=O)[C@H](CC(C)C)NC(=O)Nc1ccc(Br)cc1 [Compound 78, (2S)-2-{[(4-bromophenyl)carbamoyl]amino}-4-methyl-N-(2-oxopropyl)pentanamide] |  | nM (0.82)
CCC[C@H](NC(=O)Nc1ccc(Br)cc1)C(=O)NCC(N)=O [Compound 79, (2S)-N-(2-amino-2-oxoethyl)-2-{[(4-bromophenyl)carbamoyl]amino} pentanamide] |  | nM (0.97)
CC1(CCc2ccccc2F)NC(=O)N(NC(=O)Nc2ccc(Br)cc2)C1=O (stereo not drawn) [Compound 80, 1-(4-bromophenyl)-3-{4-[2-(2-fluorophenyl)ethyl]-4-methyl-2,5-dioxoimidazolidin-1-yl}urea] | 7.84 | nM (99)
CCC[C@H](NC(=O)Nc1ccc(Br)cc1F)C(=O)NCC(N)=O [Compound 81, (2S)-N-(2-amino-2-oxoethyl)-2-{[(4-bromo-2-fluorophenyl)carbamoyl]amino} pentanamide] |  | nM (0.96)
CC1(CCc2ccc(F)cc2)NC(=O)N(NC(=O)Nc2ccc(Br)cc2)C1=O (stereo not drawn) [Compound 82, 1-(4-bromophenyl)-3-{4-[2-(4-fluorophenyl)ethyl]-4-methyl-2,5-dioxoimidazolidin-1-yl}urea] | 7.79 | nM (1.0)
CC1(CCc2cccc(F)c2)NC(=O)N(NC(=O)Nc2ccc(Br)cc2)C1=O (stereo not drawn) [Compound 83, 1-(4-bromophenyl)-3-{4-[2-(3-fluorophenyl)ethyl]-4-methyl-2,5-dioxoimidazolidin-1-yl}urea] |  | nM (1.0)
CC(C)C[C@H](NC(=O)Nc1ccc(Br)cc1F)C(=O)NCC(N)=O [Compound 84, (2S)-N-(2-amino-2-oxoethyl)-2-{[(4-bromo-2-fluorophenyl)carbamoyl]amino}-4-methylpentanamide] | 8.35 | nM (0.95)
CC(=O)CNC(=O)[C@H](CC(C)C)NC(=O)Nc1ccc(Br)cc1F [Compound 85, (2S)-2-{[(4-bromo-2-fluorophenyl)carbamoyl]amino}-4-methyl-N-(2-oxopropyl)pentanamide] |  | nM (0.99)
CC(C)C[C@H](NC(=O)Nc1ccc(Br)cc1F)C(=O)N[C@@H](C)C(=O)O [Compound 87, (2S)-2-{[(2S)-2-{[(4-bromo-2-fluorophenyl)carbamoyl]amino}-4-methylpentanoyl]amino} propanoic acid] | 7.92 | nM (0.95)
CC1(CCc2cccs2)NC(=O)N(NC(=O)Nc2ccc(Br)cc2)C1=O (stereo not drawn) [Compound 88, 1-(4-bromophenyl)-3-{4-methyl-2,5-dioxo-4-[2-(thiophen-2-yl)ethyl]imidazolidin-1-yl}urea] |  | nM (0.94)
CC1(CCc2ccc(O)cc2)NC(=O)N(NC(=O)Nc2ccc(Br)cc2F)C1=O (stereo not drawn) [Compound 89, 1-(4-bromo-2-fluorophenyl)-3-{4-[2-(4-hydroxyphenyl)ethyl]-4-methyl-2,5-dioxoimidazolidin-1-yl}urea] |  | nM (0.85)
CC(C)C[C@H](NC(=O)Nc1ccc(Br)cc1)C(=O)N[C@@H](C)C(=O)O [Compound 90, (2S)-2-{[(2S)-2-{[(4-bromophenyl)carbamoyl]amino}-4-methylpentanoyl]amino} propanoic acid] | 7.94 | nM (1.0)
CC(C)C[C@H](NC(=O)Nc1ccc(Br)cc1)C(=O)N[C@H](C(=O)O)C(C)C [Compound 91, (2S)-2-{[(2S)-2-{[(4-bromophenyl)carbamoyl]amino}-4-methylpentanoyl]amino}-3-methylbutanoic acid] | 8.77 | nM (0.97)
CCOP(=O)(O)CNC(=O)[C@H](CC(C)C)NC(=O)Nc1ccc(Br)cc1 [Compound 105, ethyl hydrogen ({[(2S)-2-{[(4-bromophenyl)carbamoyl]amino}-4-methylpentanoyl]amino}methyl)phosphonate] |  | nM (0.88)
